{"source": "patent US11385223B2", "about": "“Anastasis biosensor” (THE JOHNS HOPKINS UNIVERSITY, priority 2012, dated 2022)", "key": {"[1]": {"tested_on": "NIH 3T3 cells", "experiment": "Apoptosis induction and its reversal in NIH 3T3 cells (morphology, caspase-3 Western blot)", "type": "cell-based"}, "[2]": {"tested_on": "liver cells and NIH 3T3 cells", "experiment": "Transient actinomycin D exposure after removal of apoptotic inducers (caspase-3 Western blot, trypan blue exclusion)", "type": "cell-based", "procedure": "FIG. 14A-14F: Critical contributing factors in reversal of apoptosis. (FIG. 14A) RNA blot for detecting new RNA synthesis in untreated vs. treated and washed (Washed) liver cells 1 h after a 5-h exposure to 4.5% ethanol and with and without transient exposure (1 h, 1 μg/ml) to actinomycin D (AMD). No s4U served as negative control for the probe binding to RNA. (FIG. 14B) Western blot analysis of the cleavage of caspase-3 (Casp-3) on the total lysate of untreated, treated (5-h exposure to 4.5% ethanol for liver cells, 20-h exposure to 10% DMSO for NIH 3T3 cells), and washed liver cells and NIH 3T3 cells with and without transient exposure to actinomycin D (AMD) immediately after removal of apoptotic stimuli. The AMD-exposed cells were cultured in fresh medium for 23 h and then subjected to the analysis. c, cleaved form. […] The AMD exposed-cells were cultured in fresh medium for 23 h and then subjected to the assay. ns, p>0.05; *p<0.05; n=3 independent experiments. Error bars denote SD. (FIG. 14D) A time-course microarray study in liver cells, log 2-fold change of gene expression comparison between ethanol-induced apoptotic cells (RO), untreated cells (Ctrl), and induced cells that were then washed and further cultured in fresh medium for 3 (R3), 6 (R6), 24 (R24), and 48 h (R48). The log 2 signal values from three biological replicates were averaged (geometric mean) for each time point. […] The corresponding cells were exposed to the inhibitors after apoptotic stimuli had been removed from the treated cells and then further cultured for 24 h. ns, p>0.05; *P<0.05; n=3 independent experiments. Error bars denote SD. (FIG. 14F) Proposed model for reversal of apoptosis. Expression of multiple prosurvival factors and new transcripts during reversal of apoptosis promotes cell survival by suppressing the activated apoptotic pathways and repairing the cells.\nTo gain insight into the mechanism by which cells reverse apoptosis and survive, we first tested whether new transcription is required. […]"}, "[3]": {"tested_on": "primary mouse macrophages", "experiment": "Apoptosis induction and its reversal in primary macrophages (morphology)", "type": "cell-based"}, "[4]": {"tested_on": "HeLa cells", "experiment": "Apoptosis induction and its reversal in HeLa cells expressing caspase biosensor NES-DEVD-YFP-NLS"}, "[5]": {"tested_on": "primary mouse liver cells"}, "[6]": {"tested_on": "primary rat heart cells"}, "[7]": {"tested_on": "Mustela putoris furo (Mpf) brain cells", "experiment": "Apoptosis induction and its reversal in Mpf brain cells (morphology, annexin V-FITC)", "type": "cell-based, ferret"}, "[8]": {"settings": "transient exposure (1 h, 1 μg/ml) immediately after removal of apoptotic stimuli, then 23 h fresh medium"}, "[9]": {"settings": "4.3% ethanol 5 h, washed, cultured 2 h"}}, "note": "Numbered stars: 1 amine (or outer) side, 2 acyl side, 3 side chain; on linkers, the order of the positions; unused ones are H or OH. Bridge positions count the residues as written; N and C are the ends. Square brackets hold non-standard residues; d marks the D form. Peptide text beside a SMILES is read from it. I, II: the chains in the order shown. Actinocin(9to1) = Cc1c2oc3c(C)ccc(C(=O)[*:1])c3nc-2c(C(=O)[*:2])c(N)c1=O; NMeV = CN[C@H](C(=O)O)C(C)C; Sar = CNCC(=O)O"}
{"smiles": "C[S+](C)[O-]", "note": "[DMSO, dimethyl sulfoxide]", "values": [{"measurement": "cells that reversed all signs of apoptosis after removal of the inducer", "setting": "[1]; 10% DMSO 20 h, then washed, 24 h", "value": "> 90", "unit": "%"}, {"measurement": "NIH 3T3 cells exhibiting multiple hallmarks of apoptosis", "setting": "[1]; 10% DMSO for 20 h", "value": "> 90", "unit": "%"}, {"measurement": "caspase-3 cleavage (Western blot)", "setting": "[1]; NIH 3T3 cells induced with DMSO", "value": "increase in cleaved caspase-3"}]}
{"smiles": "Cc1c2oc3c(C)ccc(C(=O)N[C@@H]4C(=O)N[C@H](C(C)C)C(=O)N5CCC[C@H]5C(=O)N(C)CC(=O)N(C)[C@@H](C(C)C)C(=O)O[C@@H]4C)c3nc-2c(C(=O)N[C@@H]2C(=O)N[C@H](C(C)C)C(=O)N3CCC[C@H]3C(=O)N(C)CC(=O)N(C)[C@@H](C(C)C)C(=O)O[C@@H]2C)c(N)c1=O", "note": "[actinomycin D] (I: T[dV]P[Sar][NMeV] / II: T[dV]P[Sar][NMeV]; ester I:1-I:C, II:1-II:C; linker I:N-II:N via Actinocin(9to1))", "values": [{"measurement": "cell death in control cells not treated with apoptotic inducers", "setting": "[2]; same concentration of actinomycin D", "value": "did not cause significant cell death"}, {"measurement": "caspase-3 cleavage (Western blot) after removal of apoptotic inducers", "setting": "[2]; [8]", "value": "persistence of cleaved caspase-3"}, {"measurement": "cell death by trypan blue staining after removal of apoptotic inducers", "setting": "[2]; [8]", "value": "irreversible cell death"}]}
{"smiles": "CC(C)(O)/C=C/C(=O)[C@](C)(O)[C@H]1[C@H](O)C[C@@]2(C)[C@@H]3CC=C4[C@@H](C=C(O)C(=O)C4(C)C)[C@]3(C)C(=O)C[C@]12C", "note": "[cucurbitacin I]", "values": [{"measurement": "cells that recovered morphology after removal of the inducer", "setting": "[3]; 1 μM cucurbitacin I 24 h, then removal of inducer for 24 h", "value": "~90", "unit": "%"}, {"measurement": "cells displaying morphological hallmarks of apoptosis (nuclear condensation, mitochondrial fragmentation, cell shrinkage)", "setting": "[3]; 1 μM cucurbitacin I for 24 h", "value": "Greater than 90%"}]}
{"smiles": "CCO", "note": "[ethanol]", "values": [{"measurement": "cells that recovered normal morphology after removal of the inducer", "setting": "[4]; [9]", "value": "> 90", "unit": "%"}, {"measurement": "recovered cells that retained nuclear YFP", "setting": "[4]; [9]", "value": 32, "unit": "%"}, {"measurement": "cells exhibiting morphological hallmarks of apoptosis (nuclear condensation, membrane blebbing, cell shrinkage)", "setting": "[4]; 4.3% ethanol for 3 h", "value": "vast majority"}, {"measurement": "time to regain normal morphology after removal of the apoptotic inducer", "setting": "[4]; 4.3% ethanol, then washed", "value": "≤ 2", "unit": "h"}, {"measurement": "formation of micronuclei after reversal of apoptosis", "setting": "[4]; after reversal of ethanol-induced apoptosis, cytokinesis-block micronucleus assay", "value": "Increased in formation of micronuclei"}, {"measurement": "cells that reversed all signs of apoptosis after removal of the inducer", "setting": "[5]; 4.5% ethanol 5 h, then washed, 24 h", "value": "> 90", "unit": "%"}, {"measurement": "morphological hallmarks of apoptosis (cell shrinkage, plasma membrane blebbing, nuclear condensation, altered mitochondrial morphology)", "setting": "[5]; 4.5% ethanol for 2.5 h, time-lapse live-cell microscopy", "value": "displayed morphological hallmarks of apoptosis"}, {"measurement": "liver cells that shrank and displayed morphological hallmarks of apoptosis", "setting": "[5]; 4.5% ethanol for 5 h", "value": "> 80", "unit": "%"}, {"measurement": "caspase-3 cleavage (Western blot)", "setting": "[5]; liver cells induced with ethanol", "value": "increase in cleaved caspase-3"}, {"measurement": "cells that recovered morphology after removal of the inducer", "setting": "[6]; 4.5% ethanol 5 h, then removal of inducer for 24 h", "value": "~90", "unit": "%"}, {"measurement": "cells labeled with annexin V-FITC", "setting": "[6]; 4.5% ethanol 5 h, annexin V-FITC applied ten minutes before washing", "value": "Greater than 90%"}, {"measurement": "cells displaying morphological hallmarks of apoptosis (nuclear condensation, mitochondrial fragmentation, cell shrinkage)", "setting": "[6]; 4.5% ethanol for 5 h", "value": "Greater than 90%"}]}
{"smiles": "C/C1=C\\[C@H](C)C[C@H](C)OC(=O)C[C@H](c2ccc(O)cc2)NC(=O)[C@@H](Cc2c(Br)[nH]c3ccccc23)N(C)C(=O)[C@H](C)NC(=O)[C@@H](C)C1", "note": "[jasplakinolide]", "values": [{"measurement": "cells that recovered morphology after removal of the inducer", "setting": "[7]; 2 μM jasplakinolide 50 h, then removal of inducer for 24 h", "value": "~90", "unit": "%"}, {"measurement": "cells labeled with annexin V-FITC", "setting": "[7]; 2 μM jasplakinolide 50 h, annexin V-FITC applied ten minutes before washing", "value": "Greater than 90%"}, {"measurement": "cells displaying morphological hallmarks of apoptosis (nuclear condensation, mitochondrial fragmentation, cell shrinkage)", "setting": "[7]; 2 μM jasplakinolide for 50 h", "value": "Greater than 90%"}]}
